The values that follow come from patent publication US20170252383A1, “AGENT FOR PROMOTING GROWTH OF NONPATHOGENIC ORAL INDIGENOUS BACTERIA OR AGENT FOR IMPROVING ORAL BACTERIAL FLORA, AND COMPOSITION FOR ORAL USE” (HOKUTO CORPORATION, priority 2014, published 2017).

Holding throughout (assay): Growth-promoting effects on normal bacteria in oral cavity (Experimental Example 2)
Type in all cases: cell-based
What all share (conditions): powder 0.01% in distilled water (triclosan concentration not printed), aerobic 37° C., 12 hours, turbidity relative to control without sample

Test [1] has as its system Streptococcus mitis ATCC 47456. As to the method:
(§1) Dry-ground mushroom powder suspensions obtained by dispersing the dry-ground powders of various mushrooms prepared as described above to a concentration of 0.01% in distilled water, and 4% aqueous solutions of the various mushroom extracts obtained as described above, were each added as samples in 100 μL portions to 96-well plates.
(§2) Next, 100 μL of suspensions of the bacteria shown in Tables 1 and 2 were added to the dry-ground mushroom powder suspensions and mushroom extracts serving as these samples, and the bacteria were cultured aerobically at 37° C. for 12 hours. The bacterial suspensions used were prepared by pre-culturing the bacteria in a tryptic soy medium (TS medium; Becton and Dickinson), and inoculating the pre-cultured bacteria to a 2% concentration in a 2-fold concentration TS medium.
(§3) Bacterial proliferation was measured, calculated and evaluated in the same way as in Experimental Example 1.
(§4) The indigenous oral bacteria used in evaluation were of the following three species purchased from the ATCC.
Streptococcus mitis ATCC 47456 (abbreviated below as S. mitis)
(§5) Prior to turbidity measurement, the culture fluids were stirred by shaking the plates.

Test [2] concerns Streptococcus oralis ATCC 9811. The protocol: as §1, §2, §3, §4
Streptococcus oralis ATCC 9811 (abbreviated below as S. oralis)
as §5

Test [3] deals with Streptococcus gordonii ATCC 10558. As to the method: as §1, §2, §3, §4
Streptococcus gordonii ATCC 10558 (S. gordonii)
as §5

The structures appear in SMILES notation.

Consider `Oc1cc(Cl)ccc1Oc1ccc(Cl)cc1Cl` [Triclosan, triclosan], for which the “Degree of bacterial growth due to dry-ground powders, S. mitis” value is on record as 0 in test [1] and “suppressed growth” in test [1] (listed as triclosan). Also, the “Degree of bacterial growth due to dry-ground powders, S. oralis” value was 0 in test [2] and “suppressed growth” in test [2] (listed as triclosan). Besides, the results for the “Degree of bacterial growth due to dry-ground powders, S. gordonii” value in test [3] and in test [3] (listed as triclosan) were 0 and “suppressed growth”, respectively.
